Assay results reported in article PMC9404985, “Development of Dicationic Bisguanidine-Arylfuran Derivatives as Potent Agents against Gram-Negative Bacteria” (Antibiotics, 2022).

Tests used:
[1] = Cytotoxicity assay (PrestoBlue) MCF-7; format: cell-based; settings: human, MCF-7 cells (breast cancer cell line), 24 h incubation
Protocol: (§1) The cytotoxicity levels of all compounds were evaluated against human Michigan Cancer Foundation-7 (MCF-7) and Hepatoma G2 cell line (HepG2) cell lines. MCF-7 is an extensively characterized breast cancer cell line isolated in 1970 [41], while HepG2 cells were derived from a hepatoma in 1975 [42]. Both cell lines grow robustly during in vitro culture and have been widely used for cytotoxicity testing. Cells of hepatic origin, such as HepG2, are of particular relevance for toxicity studies as many drugs accumulate in the liver during metabolic conversion. Cells were grown in Dulbecco’s Modified Eagle Medium supplemented with 10% fetal calf serum and kept in exponential growth, as previously reported. Before the assay, cells were reseeded into 96-well microtiter plates at a density allowing continued exponential growth and let to settle for 24 h. The compounds were added from a stock solution in DMSO, for a final concentration of 0.3% v/v of the solvent in the culture medium. After 24 h of incubation in presence of the compound, cell viability was assayed using PrestoBlue Cell Viability Reagent (resazurin-based solution, ThermoFisher, Waltham, MA, USA) according to the manufacturer’s instructions. […] Each assay contained a DMSO control at the equivalent starting concentration, positive control (uninhibited cell growth) and negative control (cell medium only). Survival was expressed as percentage of the solvent-only control. […] The Selectivity Index (SI) for each compound and bacterial strain was calculated as the ratio between the mean of the EC50 values for the two human cell lines and the EC50 for the bacterial strain in question ((EC50 MCF-7 + EC50 HepG2)/2)/EC50 bacterial strain).

[2] = Cytotoxicity assay (PrestoBlue) HepG2; format: cell-based; settings: human, HepG2 cells (hepatoma cell line), 24 h incubation
Protocol: as §1

E. cloacae (CCUG #6323T) = assay: Antibacterial activity against isolates (Omnilog, Biolog redox dye); format: cell-based, Enterobacter cloacae; settings: for EC50 / EC90: Enterobacter cloacae, ca-MH broth, 24 h, 37 °C; for Selectivity index E. cloacae (CCUG #6323T): SI = ((EC50 MCF-7 + EC50 HepG2)/2)/EC50 bacterial strain
Protocol: (§2) The antibacterial activities of eight compounds (1, 3, 4, 6, 8, 10, 16, and 17) were tested against 10 different isolates of Gram-negative bacteria from human and other sources, two E. coli (CCUG #67180 and CCUG #17620/ATCC #25922, control strain), two K. pneumoniae (CCUG #58547 and CCUG #225T), two P. aeruginosa (CCUG #17619 and CCUG #59347), two A. baumannii (CCUG #57035 and CCUG #57250), E. cloacae (CCUG #6323T), and E. hormaechei (CCUG #58962) in a 96-well plate format. The compounds to test were 3-fold diluted in six steps in cation-adjusted Mueller-Hinton (ca-MH) broth to final concentrations spanning from 30 to 0.12 µM, i.e., a 1667–416,667 times dilution from the 50 mM stocks. Bacterial mass from the ten isolates grown overnight on horse blood or Mueller–Hinton agar plates was suspended in ca-MH and adjusted to a final inoculum cell density of ~5 × 10^5 CFU/mL. For all assays, Biolog redox dye A diluted 100× from the stock solution was used for measurements of all ten isolates (up to a total volume of 120 µL per well). All plates included one well per isolate with only inoculum and dye but no test compound (i.e., positive control) and one well per isolate with inoculum, dye and DMSO diluted 1667×, corresponding to the DMSO concentration in the wells with the highest concentration of test compound. All measurements were performed using the Omnilog microplate reader (Biolog, Hayward, CA, USA) where the 96-well plates were read at 15 min intervals for a total of 24 h at 37 °C.

[3] = test system: A. baumannii (CCUG #57250); assay: as above; format: cell-based, Acinetobacter baumannii; settings: for EC90 / EC50: Acinetobacter baumannii, ca-MH broth, 24 h, 37 °C; for EC90: CCUG57250, 24 h; for EC50: CCUG57250; for Selectivity index A. baumannii (CCUG #57250): SI = ((EC50 MCF-7 + EC50 HepG2)/2)/EC50 bacterial strain
Protocol: as §2

[4] = test system: E. coli MG1655 (CGSC #6300); assay: Antibacterial resazurin assay, laboratory strain; settings: for EC50 / EC90: Escherichia coli, MG1655, 18 h; for EC50: read-out: Eco EC50; for EC90: read-out: Eco EC90; for Selectivity index E. coli: mean of MCF-7 and HepG2 EC50 over bacterial EC50, laboratory strain
[5] = test system: P. aeruginosa (CCUG #59347); assay: Antibacterial activity against isolates (Omnilog, Biolog redox dye); format: cell-based, Pseudomonas aeruginosa; settings: for EC50 / EC90: Pseudomonas aeruginosa, CCUG59347, ca-MH broth, 24 h, 37 °C
Protocol: as §2, with “The compounds to test were 3-fold diluted in six steps in cation-adjusted Mueller-Hinton (ca-MH) broth to final concentrations spanning from 30 to 0.12 µM, i.e., a 1667–416,667 times dilution from the 50 mM stocks.” left out

[6] = test system: P. caledonica (NBRC/ATCC #102488); assay: Antibacterial resazurin assay, laboratory strain; settings: for EC50 / EC90: Paraburkholderia caledonica, ATCC102488, 18 h; for EC50: read-out: Pcal EC50; for EC90: read-out: Pcal EC90
[7] = test system: K. pneumoniae (CCUG #225T); assay: Antibacterial activity against isolates (Omnilog, Biolog redox dye); format: cell-based, Klebsiella pneumoniae; settings: for EC50 / EC90: Klebsiella pneumoniae, ca-MH broth, 24 h, 37 °C; for Selectivity index K. pneumoniae (CCUG #225T): SI = ((EC50 MCF-7 + EC50 HepG2)/2)/EC50 bacterial strain
Protocol: as §2

[8] = test system: A. baumannii (CCUG #57035); assay: as above; format: cell-based, Acinetobacter baumannii; settings: for EC50 / EC90: Acinetobacter baumannii, CCUG57035, ca-MH broth, 24 h, 37 °C; for Selectivity index A. baumannii (CCUG #57035): SI = ((EC50 MCF-7 + EC50 HepG2)/2)/EC50 bacterial strain
Protocol: as §2, with “The compounds to test were 3-fold diluted in six steps in cation-adjusted Mueller-Hinton (ca-MH) broth to final concentrations spanning from 30 to 0.12 µM, i.e., a 1667–416,667 times dilution from the 50 mM stocks.” left out

[9] = test system: E. hormaechei (CCUG #58962); assay: as above; format: cell-based, Enterobacter hormaechei; settings: for EC50 / EC90: Enterobacter hormaechei, CCUG58962, ca-MH broth, 24 h, 37 °C; for Selectivity index E. hormaechei (CCUG #58962): SI = ((EC50 MCF-7 + EC50 HepG2)/2)/EC50 bacterial strain
Protocol: as §2, with “The compounds to test were 3-fold diluted in six steps in cation-adjusted Mueller-Hinton (ca-MH) broth to final concentrations spanning from 30 to 0.12 µM, i.e., a 1667–416,667 times dilution from the 50 mM stocks.” left out

COC(=O)c1cc(NC(=N)N)ccc1-c1ccc(-c2ccc(NC(=N)N)cc2C(=O)OC)o1 [Compound 8, 2,5-Bis(4-guanidino-2-(methylcarboxy)phenyl)furan]
EC50 at 24 h [1]: 81.6 µM
EC50 at 24 h [2]: 405 µM
EC50 (E. cloacae (CCUG #6323T)): 4.8 µM
EC90 (E. cloacae (CCUG #6323T)): 7.1 µM
Selectivity index E. cloacae (CCUG #6323T) (E. cloacae (CCUG #6323T)): 50.8
EC90 [3]: 5.1 µM
EC50 [3]: 4.4 µM
Selectivity index A. baumannii (CCUG #57250) [3]: 55.3
EC50 [4]: 95.4 µM
EC90 [4]: 129 µM
Selectivity index E. coli [4]: 2.5
EC50 [5]: > 200 µM
EC90 [5]: > 200 µM
EC50 [6]: > 300 µM
EC90 [6]: > 300 µM
EC50 [7]: 5.6 µM
EC90 [7]: 7.9 µM
Selectivity index K. pneumoniae (CCUG #225T) [7]: 43.3
EC50 [8]: 5.2 µM
EC90 [8]: 7 µM
Selectivity index A. baumannii (CCUG #57035) [8]: 47.2
EC50 [9]: 8.3 µM
EC90 [9]: 8.7 µM
Selectivity index E. hormaechei (CCUG #58962) [9]: 29.4

COc1cc(NC(=N)N)ccc1-c1ccc(-c2ccc(NC(=N)N)cc2OC)o1 [Compound 6, 2,5-Bis(4-guanidino-2-methoxyphenyl)furan]
EC50 at 24 h [1]: 74.7 µM
EC50 at 24 h [2]: 213 µM
EC50 (E. cloacae (CCUG #6323T)): 5.3 µM
EC90 (E. cloacae (CCUG #6323T)): 8.4 µM
Selectivity index E. cloacae (CCUG #6323T) (E. cloacae (CCUG #6323T)): 27.4
EC90 [3]: 8.8 µM
EC50 [3]: 7.6 µM
Selectivity index A. baumannii (CCUG #57250) [3]: 19.0
EC50 [4]: 35.7 µM
EC90 [4]: 76.3 µM
Selectivity index E. coli [4]: 4.0
EC50 [5]: 54.8 µM
EC90 [5]: 65.3 µM
Selectivity index P. aeruginosa (CCUG #59347) ([5]; SI = ((EC50 MCF-7 + EC50 HepG2)/2)/EC50 bacterial strain): 2.6
EC50 [6]: 25.6 µM
EC90 [6]: 35.6 µM
Selectivity index P. caledonica ([6]; mean of MCF-7 and HepG2 EC50 over bacterial EC50, laboratory strain): 5.6
EC50 [7]: 10.3 µM
EC90 [7]: 12.7 µM
Selectivity index K. pneumoniae (CCUG #225T) [7]: 14.0
EC50 [8]: 6.8 µM
EC90 [8]: 11 µM
Selectivity index A. baumannii (CCUG #57035) [8]: 21.3
EC50 [9]: 15.9 µM
EC90 [9]: 22.9 µM
Selectivity index E. hormaechei (CCUG #58962) [9]: 9.0
